The data set has as its system Salmonella TA1538 and TA98. Briefly: Ames test (preincubation method, metabolically activated, +x9mix). As to conditions: 0 to 5 mg; for Increase (times): maximum increase in the colony of the sample as compared with the solvent control: acetone as solvent control; for Toxicity (mutagenicity): judged against solvent control. The procedure:
Ames test was conducted as an identical amest test with respect to representative examples of the intermediate of the present invention and control dyes having the same structure as that of the intermediate of the present invention, except that the ring was a pyridine ring instead of the phenyl ring.
The ames test was conducted in such a state that Salmonella TA1538 and TA98 were metabolically activated by a preincubation method (+x9mix). The dye was used in contentrations in five grades in the range of from 0 to 5 mg. Acetone was used as the solvent control. The toxicity was judged based on the maximum increase in the colony of the sample as compared with the solvent control. Specifically, when the increase in the reversion colony was twice or more as compared with that in the case of the control, the mutagenicity was judged as positive, while when the increase in the reversion colony was less than twice as compared with that in the case of the control, the mutagenicity was judged as negative.
(In the Ames test, an excess of revertant colonies over the control signals mutagenicity.)

For `CCN(CC)c1ccc(N=Nc2cn(-c3ccccc3)nc2C)cn1`, the “Increase (times): maximum increase in the colony of the sample as compared with the solvent control” value is 1.5 times and the “Toxicity (mutagenicity)” value is “neg- ative”.
For `CCN(CC)c1ccc(N=C2C=C(NC(C)=O)C(=O)C(Cl)=C2C)cn1`, in that order: 1.5 times and “neg- ative”.
For `CCN(CC)c1ccc(N=Nc2cn(-c3ccccc3)nc2C)cc1`, in that order: 2.2 times and “pos- itive”.
For the compound `CCN(CC)c1ccc(N=C2C=C(NC(C)=O)C(=O)C(Cl)=C2C)cc1`, the “Increase (times): maximum increase in the colony of the sample as compared with the solvent control” value stood at 1.7 times and the “Toxicity (mutagenicity)” value is reported as “neg- ative”.

The record behind these values is patent publication US5374601A, “Thermal transfer sheet” (Dai Nippon Printing Co., Ltd., priority 1991, dated 1994).
